According to patent publication US20240109883A1, “Anti-Tumor Compositions and Methods” (priority 2020, published 2024):
pIC50: −log10 of the molar value.

Tests used:
Type in all cases: cell-based
MRC5 4d Toxicity Assay = details: human, confluent MRC5 cells, DAPI cell count, read-out: MRC5 4 d Tox: CC50
Protocol: MRC5 cells were seeded in 96-well plates 1-2 days prior to treatment to ensure 100% confluence. On the day of treatment, cells were washed once and growth media was replaced. Compound (in DMSO) was added to cells using the following dilution scheme: 25, 12.5, 4.16, 1.4, 0.46, 0.15, 0.05 μM. Test concentrations were assayed in duplicate and included 0 μM (DMSO) control wells. Plates were incubated for 4 days. After treatment, cells were washed, fixed with 4% PFA and stained with DAPI. Plates were imaged using a Cytation 3 plate reader and nuclear DAPI staining was used to quantify cell survival. Dose-response plots were generated using CDD Vault to calculate CC50s.

MCF7 cells = test: MCF7 Cell Growth Inhibition Assay; details: Homo sapiens, 24 h, 10% serum, DAPI cell count, 4-pt dilution from 10 μM
Protocol: MCF7 cells were seeded in 96-well plates at 10% confluence 24 h prior to treatment. Compound was added to cells in full growth media containing 10% serum, using a 2-fold, 4-pt dilution scheme beginning from 10 μM (10, 5, 2.5, 1.25 μM). Plates were incubated for 24 h. After treatment, cells were washed, fixed with 4% PFA and stained with DAPI. Plates were imaged using a Cytation 3 plate reader and nuclear DAPI staining was used to quantify cell number. % Growth relative to vehicle-treated (DMSO) control wells was plotted using Excel (See FIGS. 1-8). IC50s were calculated by fitting the data points to the following standard equation:
Growth=1−[Cmpd]^n/(IC50^n+[Cmpd]^n)
where [Cmpd] is the molar concentration of compound, the IC50 is the concentration where half-maximal effect is seen, and n is the Hill coefficient.

cMYC = cMYC Degradation Assay (MDA-MB-231 cells, western blot); details: 72 hours
Protocol: MDA-MB-231 cells were seeded in 6-well format in complete growth media containing 10% serum and incubated for 48 h to ensure 100% confluence. Compound was added to cells at 5 μM and 10 μM final concentrations for a treatment period of 72 hours. Cells were harvested in ice-cold IP buffer and lysates were cleared by centrifugation. Total protein concentration was determined for each sample by Bradford assay. Proteins were separated by 10% SDS-PAGE and blotted onto PVDF membranes. Membranes were blocked with CosmoBio PDVF blocking reagent for 1 hour, followed by overnight incubation with cMYC primary antibody (Abcam) at 4 C. After several washes, the membanes were probed with secondary antibody for 1 hour at room temperature. Fluorescent signal was acquired using an Odyssey CLx (LI-COR) and quantified using ImageJ software.

[1] = system: human cytomegalovirus (HCMV); test: Antiviral activity against human cytomegalovirus (HCMV) in MRC5 cells; details: for pIC50 / IC90: Human betaherpesvirus 5, 168 h, MRC5 cells, MOI 0.01 IU per cell, 7 days post infection, mCherry positive cells; for Selectivity Index: SI50: MRC5 TOX 7 d CC50 relative to HCMV IC50
Protocol: To assess their antiviral activity, some compounds were tested against human cytomegalovirus (HCMV) in vitro. Human MRC5 cells were grown to confluency (˜1.0×10^4 cells/well) in 96-well plate format in Dulbecco's Modified Eagle Medium (DMEM) supplemented with 10% fetal bovine serum (FBS) 2 mM L-glutamine, 0.1 mM non-essential amino acids, 10 mM HEPES, and 100 U/ml each of penicillin and streptomycin and infected with an HCMV variant expressing mCherry tagged pUL99 (the product of late viral UL99 gene) at a multiplicity of 0.01 infectious unit (IU) per cell. Assays were performed in triplicate. One hour later, medium of the cells was replaced with fresh medium containing the indicated compounds at 25, 12.5, 6.25, 3.13, 1.56, 0.78, 0.39 μM or the carrier in which the compounds are dissolved (DMSO). Final concentration of DMSO was 0.5% in each treatment. Virus yield in the culture was determined at 7 days post infection by quantification of fluorescent (mCherry positive) cells in each well by fluorescent microscopy. Results were plotted using CDD Vault (CDD Vault was developed by Collaborative Drug Discovery, Inc., 1633 Bayshore Hwy, Suite 342, Burlingame, CA 94010) in order to calculate IC50s and IC90s.

MRC5 TOX 7 d = details: human

Row | Structure (SMILES) | CC50 at 4 days (MRC5 4d Toxicity Assay) [µM] | GI50 (MCF7 cells) [µM] | MDA-MB-231 cMYC: Fold Decrease in Low MW Band at 5 μM (cMYC) [fold] | MDA-MB-231 cMYC: Fold Increase in High MW Band at 5 μM (cMYC) [fold] | MDA-MB-231 cMYC: Fold Decrease in Low MW Band at 10 μM (cMYC) [fold] | MDA-MB-231 cMYC: Fold Increase in High MW Band at 10 μM (cMYC) [fold] | MDA-MB-231 cMYC qualitative degredation (cMYC) | pIC50 [1] | IC90 [1] [µM] | Selectivity Index: SI50 [1] | CC50 at 7 d (MRC5 TOX 7 d) [µM]
1 | CNC(=O)N(C)c1ccc2c(c1)CN(c1ncc(Cc3ccc(-n4cccn4)cc3)s1)CC2 [Example 023] | > 25 | 1.2 | 0.04 | 0.22 | 0.0 | 0.2 | total | 6.06 | 2.9 | >15.5 | > 13.6
2 | CN(C)C(=O)N(C)c1ccc2c(c1)CN(c1ncc(Cc3ccc(-n4cccn4)cc3)s1)CC2 [Example 024] | > 25 | 1.8 |  |  |  |  |  | 5.94 | 5.31 | 18.7 | 21.4
3 | NC(=O)Nc1ccc2c(c1)CN(c1ncc(Cc3ccc(-n4cccn4)cc3)s1)CC2 [Example 019] | > 25 | 11 | 0.62 | 1.18 | 0.9 | 3.2 | partial | 6.10 | > 6.61 | >8.6 | > 6.77
4 | CS(=O)(=O)c1ccc(Cc2cnc(N3CCc4ccc(NC(N)=O)cc4C3)s2)cc1 [Example 004] | > 25 | 142 |  |  |  |  |  | 5.25 | > 25 | >2.8 | > 15.8
5 | NC(=O)Nc1ccc2c(c1)CN(c1ncc(Cc3ccc(N4CCS(=O)(=O)CC4)cc3)s1)CC2 [Example 002] |  |  |  |  |  |  |  | 5.59 | 7.58 | >19.3 | > 50
6 | NC(=O)Nc1ccc2c(c1)CN(c1ncc(Cc3ccc(N4CCOC4=O)cc3)s1)CC2 [Example 003] | > 25 | 17.5 |  |  |  |  |  | 5.24 | > 6.77 | >1.2 | > 6.77
7 | CNC(=O)N(C)c1ccc2c(c1)CN(c1noc(Cc3ccc(-n4cccn4)cc3)n1)CC2 [Example 015] |  |  |  |  |  |  |  | 5.60 | 5.59 | 17.7 | 44.4
8 | CNC(=O)Nc1ccc2c(c1)CN(c1ncc(Cc3ccc(-n4cccn4)cc3)s1)CC2 [Example 021] | > 25 | 18.3 |  |  |  |  |  | 5.93 | > 4.43 | >2.5 | > 2.89
9 | CN(C(N)=O)c1ccc2c(c1)CN(c1ncc(Cc3ccc(-n4cccn4)cc3)s1)CC2 [Example 020] | > 25 | 2.3 |  |  |  |  |  | 5.91 | 4.7 | 2.9 | 3.63
10 | CN(C(N)=O)c1ccc2c(c1)CN(c1ncc(Cc3ccc(OCC4CC4)cc3)s1)CC2 [Example 010] |  |  |  |  |  |  |  | 5.61 | 7.97 | 6.9 | 16.9
11 | NC(=O)Nc1ccc2c(c1)CN(c1ncc(Cc3ccc(-c4ccco4)cc3)s1)CC2 [Example 007] |  |  | 0.63 | 0.9 | 0.8 | 1.3 | no degradation | 5.93 | > 2.89 | >2.4 | > 2.89
12 | CN1CC(Oc2ccc(Cc3cnc(N4CCc5ccc(NC(N)=O)cc5C4)s3)cc2)C1 [Example 006] |  |  |  |  |  |  |  | 5.47 | > 50 | 12.9 | 43.4
13 | CCOc1ccc(Cc2cnc(N3CCc4ccc(N(C)C(N)=O)cc4C3)s2)cc1 [Example 009] |  |  |  |  |  |  |  | 5.69 | 7.43 | >24.4 | > 50
14 | CN(C(N)=O)c1ccc2c(c1)CN(c1ncc(Cc3ccc(N4CCOCC4)cc3)s1)CC2 [Example 012] |  |  |  |  |  |  |  | 5.67 | > 4.24 | >23.5 | > 50
15 | CN(C(N)=O)c1ccc2c(c1)CN(c1ncc(Cc3ccc(-c4ncccn4)cc3)s1)CC2 [Example 011] |  |  | 0.31 | 1.53 | 0.5 | 2.6 | partial | 5.83 | > 10.4 | >7.0 | > 10.4
16 | NC(=O)Nc1cnc2c(c1)CN(c1ncc(Cc3ccc(-n4cccn4)cc3)s1)CC2 [Example 016] |  |  |  |  |  |  |  | 5.28 | > 6.77 | >3.0 | > 15.8
17 | NC(=O)Nc1ccc2c(c1)CN(c1ncc(Cc3ccc(-c4ncccn4)cc3)s1)CC2 [Example 001] | > 25 | 31.7 | 0.98 | 0.84 | 1.2 | 1.7 | no degradation | 5.84 | 8.72 | >7.1 | > 10.4
18 | CN(C)C(=O)Nc1ccc2c(c1)CN(c1ncc(Cc3ccc(-n4cccn4)cc3)s1)CC2 [Example 022] | > 25 | 18.3 |  |  |  |  |  | 6.27 | > 4.43 | >8.3 | > 4.43
19 | NC(=O)Nc1ccc2c(c1)CN(c1ncc(Cc3ccc(N4CCOCC4)cc3)s1)CC2 [Example 005] |  |  |  |  |  |  |  | 5.84 | 2.92 | >7.3 | > 10.4
20 | CNC(=O)N(C)c1ccc2c(c1)CN(c1nnc(Cc3ccc(-n4cccn4)cc3)s1)CC2 [Example 013] |  |  |  |  |  |  |  | 5.37 | 9.25 | >11.7 | > 50
21 | CCOc1ccc(Cc2cnc(N3CCc4ncc(NC(N)=O)cc4C3)s2)cc1 [Example 017] |  |  |  |  |  |  |  | 5.19 | 47.5 | 7.3 | 47.3
22 | NC(=O)Nc1cnc2c(c1)CN(c1ncc(Cc3ccc(N4CCOCC4)cc3)s1)CC2 [Example 018] |  |  |  |  |  |  |  | 4.79 | 17.7 | >3.1 | > 50
